Laboratory results published in patent US7138415B2, “Indolamid derivatives which possess glycogenphosphorylase inhibitory activity” (AstraZeneca AB, priority 2002, dated 2006).

Experiments:
[1] = conscious dogs; cited from earlier work
[2] = biological target: T1, Human recombinant liver glycogen phosphorylase α (hrl GPα) (Homo sapiens, UniProt P06737); assay: Glycogen phosphorylase inhibition of glycogen degradation (multienzyme coupled assay, NADH fluorescence); assay type: biochemical; settings: glycogen degradation direction
T1 sequence (P06737 1-847): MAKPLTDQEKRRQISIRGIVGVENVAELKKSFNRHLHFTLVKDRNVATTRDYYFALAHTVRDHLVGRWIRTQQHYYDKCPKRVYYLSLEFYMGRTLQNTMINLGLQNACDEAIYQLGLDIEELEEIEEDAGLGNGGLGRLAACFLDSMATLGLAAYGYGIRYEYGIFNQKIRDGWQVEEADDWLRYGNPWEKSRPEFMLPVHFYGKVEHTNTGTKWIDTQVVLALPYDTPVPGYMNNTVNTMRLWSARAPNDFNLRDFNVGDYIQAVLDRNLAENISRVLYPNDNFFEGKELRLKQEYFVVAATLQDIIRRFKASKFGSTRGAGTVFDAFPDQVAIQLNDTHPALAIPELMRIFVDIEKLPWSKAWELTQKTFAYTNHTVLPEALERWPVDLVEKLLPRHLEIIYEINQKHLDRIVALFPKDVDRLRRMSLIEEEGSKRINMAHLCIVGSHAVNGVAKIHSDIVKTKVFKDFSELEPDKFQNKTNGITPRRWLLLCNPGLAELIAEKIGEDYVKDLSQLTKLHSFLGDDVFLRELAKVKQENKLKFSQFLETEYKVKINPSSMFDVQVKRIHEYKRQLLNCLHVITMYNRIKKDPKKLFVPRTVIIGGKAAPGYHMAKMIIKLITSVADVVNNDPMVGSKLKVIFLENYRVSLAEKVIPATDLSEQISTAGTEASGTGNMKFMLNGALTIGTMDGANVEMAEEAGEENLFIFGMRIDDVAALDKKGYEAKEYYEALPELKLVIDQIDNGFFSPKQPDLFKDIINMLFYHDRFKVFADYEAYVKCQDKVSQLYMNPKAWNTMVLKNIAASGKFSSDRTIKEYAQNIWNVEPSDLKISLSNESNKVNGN
Description: The activity of the compounds is alternatively determined by measuring the inhibitory effect of the compounds on glycogen degradation, the production of glucose-1-phosphate from glycogen is monitored by the multienzyme coupled assay, as described in EP 0 846 464 A2, general method of Pesce et al (Pesce, M A, Bodourian, S H, Harris, R C, and Nicholson, J F (1977) Clinical Chemistry 23, […]). The reactions were in 384well microplate format in a volume of 50 μl. The change in fluorescence due to the conversion of the co-factor NAD to NADH is measured at 340 nm excitation, 465 nm emission in a Tecan Ultra Multifunctional Microplate Reader. The reaction is in 50 mM HEPES, 3.5 mM KH2PO4, 2.5 mM MgCl2, 2.5mM ethylene glycol-bis(b-aminoethyl ether) N,N,N′,N′-tetraacetic acid, 100 mM KCl, 8mM D-(+)-glucose pH7.2, containing 0.5 mM dithiothreitol, the assay buffer solution. Human recombinant liver glycogen phosphorylase α (hrl GPα) 20 nM is pre-incubated in assay buffer solution with 6.25 mM NAD, 1.25 mg type III glycogen at 1.25 mg ml^−1 the reagent buffer, for 30 minutes. […] The non-inhibited activity of GPα is measured in the presence of 10 μl 5% DMSO in assay buffer solution and maximum inhibition measured in the presence of 5 mgs ml^−1 N-ethylmaleimide. […] Relative Fluoresence Units (RFUs) are measured at 340 nm excitation, 465 nm emission. […]

[3] = db/db and ob/ob mice; cited from earlier work
hepatocytes = settings: cited from earlier work

IC50 [2]	SMILES	arterial plasma glucose following a glucagon challenge [1]	hepatic glucose output following a glucagon challenge [1]	plasma glucose concentration [3]	glucagon stimulated glycogenolysis (hepatocytes)	glucose output in hepatocytes (hepatocytes)
–	CCN1C(C)=C(C(=O)OC(C)C)C(c2ccccc2Cl)C2=C1COC2=O (stereo not drawn) [Bay R 3401]	reduced significantly	reduced significantly	–	–	–
7.4 µM	O=C(CN(CCO)Cc1ccccc1)N[C@@H]1c2ccccc2C[C@H]1NC(=O)c1cc2cc(Cl)ccc2[nH]1 [Example 17, 5-Chloro-N-[(1R,2R)-1-({[(2-hydroxyethyl)(phenylmethyl)amino]acetyl}amino)-2,3-dihydro-1H-inden-2-yl]-1H-indole-2-carboxamide]	–	–	–	–	–
–	CN(C)C(=O)[C@H](O)[C@H](Cc1ccccc1)NC(=O)c1cc2cc(Cl)ccc2[nH]1 [CP91149]	–	–	reduced, in a dose related manner	reduce	reduce
–	O=C(N[C@@H](Cc1ccc(F)cc1)C(=O)N1CCC(O)CC1)c1cc2cc(Cl)ccc2[nH]1 [CP320626]	–	–	reduced, in a dose related manner	reduce	reduce
